In the test the target is T1, RFWD3 (Ring Finger and WD Repeat Domain 3) (Homo sapiens, UniProt Q6PCD5).
T1 construct: endogenous full-length protein in whole lysate of 143B osteosarcoma cells, no tag
T1 sequence (Q6PCD5 1-774): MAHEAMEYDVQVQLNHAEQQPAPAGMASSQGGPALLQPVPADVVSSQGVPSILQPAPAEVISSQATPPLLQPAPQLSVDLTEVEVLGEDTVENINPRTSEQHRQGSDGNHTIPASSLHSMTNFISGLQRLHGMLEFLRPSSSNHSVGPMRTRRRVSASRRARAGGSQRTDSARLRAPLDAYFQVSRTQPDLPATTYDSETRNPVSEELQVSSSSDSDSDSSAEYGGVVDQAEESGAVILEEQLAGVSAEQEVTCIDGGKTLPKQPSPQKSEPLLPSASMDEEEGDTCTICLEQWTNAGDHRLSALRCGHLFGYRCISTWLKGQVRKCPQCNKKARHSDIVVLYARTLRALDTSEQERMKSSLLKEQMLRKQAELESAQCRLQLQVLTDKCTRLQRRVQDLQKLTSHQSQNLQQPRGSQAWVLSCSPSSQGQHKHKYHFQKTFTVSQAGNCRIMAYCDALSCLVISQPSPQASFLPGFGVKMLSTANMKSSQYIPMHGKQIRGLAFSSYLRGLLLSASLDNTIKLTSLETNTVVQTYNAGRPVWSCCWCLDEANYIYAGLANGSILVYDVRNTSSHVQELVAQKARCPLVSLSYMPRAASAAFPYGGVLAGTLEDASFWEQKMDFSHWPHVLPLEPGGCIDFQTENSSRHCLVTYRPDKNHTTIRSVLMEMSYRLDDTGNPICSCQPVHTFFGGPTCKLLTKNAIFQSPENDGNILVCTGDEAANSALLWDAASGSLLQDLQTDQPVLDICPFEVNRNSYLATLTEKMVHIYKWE
Briefly: CETSA (lysate, Western blot) and DARTS (pronase). Format: biochemical. Particulars: 143B cell lysate; CETSA 10 µM lomitapide, 1 h room temperature, heated 5 min; DARTS 1 and 10 µM lomitapide, 4 h, pronase 2 µg/mL. On the technique in general: In western blotting, separated proteins are transferred to a membrane and probed.

Each structure is given as a SMILES string.

For `O=C(NC1CCN(CCCCC2(C(=O)NCC(F)(F)F)c3ccccc3-c3ccccc32)CC1)c1ccccc1-c1ccc(C(F)(F)F)cc1` [lomitapide], the “CETSA (lysate, Western blot) and DARTS (pronase)” value is “lomitapide protected RFWD3 from pronase degradation and significantly enhanced its thermal stability”.

The record behind these values is PMC12021087, “RFWD3 Reprograms Nucleotide Metabolism Through PHGDH to Induce Chemoresistance In Osteosarcoma” (Advanced Science, 2025).
